Entries after “also recorded” stand apart in the source; their conditions may differ. Where two headings read alike, the source gives them in different places.
Columns and labels:
MDA-N = experiment: NCI in vitro tumor cell screen, MDA-N breast cancer; format: cell-based; settings: Homo sapiens
Experimental: (§1) Selected 2-phenyl-4-quinolones were assayed using an in vitro, disease-oriented antitumor screen run by the National Cancer Institute (NCI) (e.g., Boyd 1989). The screen involved approximately 60 different cell lines and is a useful indicator of in vivo antitumor activity for a broad variety of tumor types (Grever et al., 1992; Monks et al., 1991). The cell lines tested included cells derived from the following solid tumor types: leukemia, non-small cell lung, colon, the central nervous system (CNS), melanoma, ovarian, renal, prostate, and breast cancers.

SK-Mel-5 = experiment: NCI in vitro tumor cell screen, SK-Mel-5 melanoma; format: cell-based; settings: Homo sapiens
Experimental: as §1
(§2) melonoma; SF268 and SF295, CNS tumor cell lines; DU145, prostate cancer

OVCAR-3 = experiment: NCI in vitro tumor cell screen, OVCAR-3 ovarian cancer; format: cell-based; settings: Homo sapiens
Experimental: as §1

RXF-393 = experiment: NCI in vitro tumor cell screen, RXF-393 renal cancer; format: cell-based; settings: Homo sapiens
Experimental: as §1

[1] = system: approximately 60 different cell lines; experiment: NCI in vitro disease-oriented human tumor cell screen, all cell lines; format: cell-based; settings: for GI50: Homo sapiens
Description: The cell lines tested included cells derived from the following solid tumor types: leukemia, non-small cell lung, colon, the central nervous system (CNS), melanoma, ovarian, renal, prostate, and breast cancers.

NCI-H226 = experiment: NCI in vitro tumor cell screen, NCI-H226 non-small cell lung cancer; format: cell-based; settings: Homo sapiens
Experimental: as §1

SF-268 = experiment: NCI in vitro tumor cell screen, SF-268 CNS tumor; format: cell-based; settings: Homo sapiens; SF-268, CNS tumor; read-out: logGI50 (converted)
Experimental: as §1, §2

KM202L = experiment: NCI in vitro tumor cell screen, KM20L2 colon cancer; format: cell-based; settings: Homo sapiens, KM-20L2
Experimental: as §1

DU-145 = experiment: NCI in vitro tumor cell screen, DU-145 prostate cancer; format: cell-based; settings: Homo sapiens
Experimental: as §1, §2

OVCAR-4 = experiment: NCI in vitro tumor cell screen, OVCAR-4 ovarian cancer; format: cell-based; settings: Homo sapiens
Experimental: as §1

SF-295 = experiment: NCI in vitro tumor cell screen, SF-295 CNS tumor; format: cell-based; settings: Homo sapiens, SF-295; read-out: logGI50 (converted)
Experimental: as §1, §2

K-562 = experiment: NCI in vitro tumor cell screen, K-562 leukemia; format: cell-based; settings: Homo sapiens, K562
Experimental: as §1

HCT116 = experiment: NCI in vitro tumor cell screen, HCT116 colon cancer; format: cell-based; settings: Homo sapiens, HCT-116
Experimental: as §1

tubulin [2] = experiment: inhibition of tubulin polymerization (ITP); format: biochemical, bovine
Experimental: Electrophoretically homogeneous bovine brain tubulin was purified as described previously (Hamel, et al., 1984). […] Dihydrocombretastatin A-4 was prepared as described previously (Getahun et al., 1992).
The tubulin polymerization assay was performed as described previously (Li et al., 1994). In brief, tubulin at 1.2 mg/mL ([…]) was preincubated for 15 min at 26° C. in a 0.24 mL volume in 0.8M monosodium glutamate (pH 6.6 with NaOH in a 2M stock solution) with varying drug concentrations. The drug stock solutions were in dimethyl sulfoxide, and the final solvent concentration was 4% (v/v). […] All concentrations are in terms of the final reaction volume (0.25 mL). The reaction mixtures were chilled on ice, and […] of 10 mM GTP was added to each reaction mixture. Samples were transferred to cuvettes held at 0° C. by an electronic temperature controller in Gilford spectrophotometers. Baselines were established at 350 nm, and polymerization initiated by a temperature jump to 26° C. The jump took about 50 sec to complete. After 20 min, turbidity readings were recorded, and the temperature controller was set to 0° C. When depolymerization was complete, turbidity readings were again recorded. […] IC50 values were obtained graphically from inhibition of polymerization by different drug concentrations. Four spectrophotometers were used for each experimental sequence, with at least two control reactions (no drug) in each set.

tubulin [3] = experiment: inhibition of radiolabeled colchicine binding to tubulin (ICB); design: species or system bovine; settings: evaluated only when polymerization IC50 ≤ 1.0 μM; inhibitor equimolar with [3H]colchicine, 5-fold molar excess over tubulin
Experimental: Studies conducted in support of the present invention indicate that one mode of action of the 2-phenyl-4-quinolone compounds, as antitumor agents, is an ability to bind to tubulin and inhibit cell mitosis. […] […].
[…]. […] […].
Electrophoretically homogeneous bovine brain tubulin was purified as described previously (Hamel, et al., 1984). Combretastatin A-4 was a generous gift of Dr. G. R. Pettit, Arizona State University. Dihydrocombretastatin A-4 was prepared as described previously (Getahun et al., 1992). […]

protein-linked DNA = experiment: breaks in protein-linked DNA; settings: compared with VP-16
[4] = average over cell lines, read-out: average log GI50 (converted)
[5] = calculated from all cell lines tested (Table II), read-out: average logGI50 (converted)
[6] = ± SD, tubulin 1.2 mg/mL, 26° C., 20 min, read-out: ITP IC50 (inhibition of tubulin polymerization)

COc1cccc(-c2cc(O)c3cc(N4CCCC4)ccc3n2)c1 [compound 28, 3'-Methoxy-6-pyrrolinyl-2-phenyl-4-quinolone]
GI50 (MDA-N): < 1 nM
GI50 (SK-Mel-5): < 1 nM
GI50 (OVCAR-3): < 1 nM
GI50 (RXF-393): < 1 nM
antitumor activity / cytotoxicity, in words [1]: most potent activity of all; also recorded: exceeded the sensitivity of the testing protocol for many of the cell lines tested
GI50 [1, 4]: ≤ 1.86 nM
GI50 [1, 5]: 1.86 nM
GI50 (NCI-H226): < 1 nM
GI50 (SF-268): < 1 nM
GI50 (KM202L): < 1 nM
GI50 (DU-145): < 1 nM
GI50 (OVCAR-4): 2000 nM
GI50 (SF-295): < 1 nM
GI50 (K-562): < 1 nM
GI50 (HCT116): < 1 nM

CCOc1cccc(-c2cc(=O)c3cc4c(cc3[nH]2)OCO4)c1 [compound 18, 3'-Ethoxy-6,7-methylenedioxy-2-phenyl-4-quinolone]
GI50 (MDA-N): 17.8 nM
GI50 (SK-Mel-5): 191 nM
GI50 (OVCAR-3): 166 nM
GI50 (RXF-393): 275 nM
GI50 [1, 4]: 224 nM
GI50 [1, 5]: 224 nM
GI50 (NCI-H226): 324 nM
IC50 (tubulin [2]; [6]): 0.00047 ± 0.0001 mM
GI50 (SF-268): 269 nM
GI50 (KM202L): 182 nM
GI50 (DU-145): 251 nM
ICB (% inhibition of colchicine binding) (tubulin [3]): 40 ± 2%
GI50 (SF-295): 64.6 nM
GI50 (K-562): 44.7 nM
GI50 (HCT116): 174 nM

CC(=O)Nc1ccc2nc(-c3cccc(Cl)c3)cc(O)c2c1 [compound 26, 3'-Chloro-6-acetamido-2-phenyl-4-quinolone]
GI50 [1, 5]: 10500 nM
IC50 (tubulin [2]; [6]): 0.0023 ± 0.0007 mM
GI50 (OVCAR-4): > 100000 nM
breaks in protein-linked DNA (protein-linked DNA): no detectable breaks in protein-linked DNA

COc1cccc(-c2cc(O)c3cc(N(C)C)ccc3n2)c1 [compound 23, 3'-Methoxy-6-N,N-dimethylamino-2-phenyl-4-quinolone]
GI50 (MDA-N): 1.7 nM
GI50 (SK-Mel-5): 25.7 nM
GI50 (OVCAR-3): 15.1 nM
GI50 (RXF-393): 18.6 nM
antitumor activity / cytotoxicity, in words [1]: in every case lower than those observed for compounds 10-22, 25-27, and 32
difference in average log GI50 versus compounds 10-22, 25-27, and 32 [1]: at least 0.9 log units
GI50 [1, 4]: 31.6 nM
GI50 [1, 5]: 30.2 nM
GI50 (NCI-H226): 44.7 nM
IC50 (tubulin [2]; values given in mM, read-out: IC50, inhibition of tubulin polymerization): 0.00038 mM
IC50 (tubulin [2]; [6]): 0.00038 ± 0.0001 mM
GI50 (SF-268): 43.7 nM
GI50 (KM202L): 4.57 nM
GI50 (DU-145): 34.7 nM
GI50 (OVCAR-4): 5500 nM
ICB (% inhibition of colchicine binding) (tubulin [3]): 14 ± 8%
GI50 (SF-295): 15.5 nM
GI50 (K-562): 8.91 nM
